# Test results: patent US12377083B2 (WUHAN LL SCIENCE AND TECHNOLOGY DEVELOPMENT CO., LTD., priority 2019, dated 2025)
# What was measured:
# [1] = In vitro metabolic stability, mouse liver microsomes; format: in vitro ADME; details: 1 mg/mL liver microsome protein, 37° C., read-out: Metabolism in mouse liver microsome T½ min
# Method: (§1) The in vitro metabolic stability of the compounds disclosed herein was determined through incubation of liver microsomes of various species. A proper amount of test compound was added into a liver microsome reaction system (1 mg/mL liver microsome protein, 25 U/mL glucose-6 phosphate dehydrogenase, 1 mM NADP, 6 mM D-glucose 6-phosphate and 5 mM MgCl2), and then the mixture was incubated in a water bath kettle at 37° C. to start reaction. At each time point, 100 μL of the reaction system was added into a centrifuge tube containing 400 μL of internal standard working solution (containing a 200 ng/mL solution of dexamethasone, diclofenac, tolbutamide and labetalol in acetonitrile) precooled at 0° C. so as to stop the reaction, and the mixture was then centrifuged at 10,000 g for 10 min at 4° C. The supernatant was collected for LC-MS assay so as to obtain the values of in vitro metabolic half-life of the test compounds in liver microsomes of various species.
# [2] = In vitro cytotoxicity assay in HepG2 cells, CCK-8 method; format: cell-based; details: human
# Method: In vitro cytotoxicity assay for the compounds disclosed herein was performed in HepG2 cells using the CCK-8 method. HepG2 cells (Beina Bio) in the logarithmic growth phase were collected, the concentration of cell suspension was adjusted, and then the cells were plated on a 96-well cell culture plate at 50,000 cells/well. The cells were then incubated overnight in a cell incubator (5% CO2, 37° C.), and after 80-90% cell confluence was achieved, test compounds or vehicle (DMSO) at various concentration gradients were added after medium change. The resulting mixture was incubated in the cell incubator (5% CO2, 37° C.) for 48 h. After the treatment, the medium in the plate was discarded. The plate was washed twice with PBS, added with CCK-8 working solution (Beyotime) at 100 μL per well, and then incubated at 37° C. for 1.5 h away from the light. Absorbance at OD450 nm was measured for each well on a microplate reader, and CC50 value of each compound was analyzed and calculated.
# [3] = In vitro metabolic stability, rat liver microsomes; format: in vitro ADME; details: 1 mg/mL liver microsome protein, 37° C., read-out: Metabolism in rat liver microsome T½ min
# Method: as §1
# [4] = In vitro metabolic stability, human liver microsomes; format: in vitro ADME; details: 1 mg/mL liver microsome protein, 37° C., read-out: Metabolism in human liver microsome T½ min
# Method: as §1
# [5] = tested on: A2058 (human melanoma cells); test: A2058 cell scratch (migration) assay with LPA; format: cell-based; details: 10 μM LPA, scratch area at 24 h
# [6] = biological target: hLPAR1 (human lysophosphatidic acid receptor 1) (Homo sapiens, UniProt Q92633); test: FLIPR assay of intracellular calcium increase induced by activation of hLPAR1 expressed in CHO-K1 cells; format: cell-based; details: CHO-K1 cells expressing hLPAR1, agonist oleoyl-L-α-lysophosphatidic acid 1 μM; read-out: LPAR1 IC50
# Procedure, shortened: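 CHO-K1 cells expressing hLPAR1 were loaded with Fluo-4 AM for 1.0 h at 37° C, then preincubated 30 min at room temperature with compound. Oleoyl-LPA was added at 1 μM final, and calcium fluorescence was recorded by FLIPR for 2 min at 1-s intervals to assess antagonism.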
# hLPAR1 (human lysophosphatidic acid receptor 1), sequence (Q92633 whole entry): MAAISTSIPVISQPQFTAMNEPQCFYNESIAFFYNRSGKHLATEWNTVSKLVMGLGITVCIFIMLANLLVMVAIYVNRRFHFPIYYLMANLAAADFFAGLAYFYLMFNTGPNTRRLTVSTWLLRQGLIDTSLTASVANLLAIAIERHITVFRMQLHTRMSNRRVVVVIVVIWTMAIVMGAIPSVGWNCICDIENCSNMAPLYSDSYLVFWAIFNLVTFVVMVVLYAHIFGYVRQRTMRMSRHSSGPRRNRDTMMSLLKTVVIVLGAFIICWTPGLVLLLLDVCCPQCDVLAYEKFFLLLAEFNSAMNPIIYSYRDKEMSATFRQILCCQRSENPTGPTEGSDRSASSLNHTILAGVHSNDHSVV
Structure (SMILES),half-life [1],half-life [3],half-life [4],IC50 [6],CC50 at 48 h [2],Cell migration inhibition rate (%) [5]
"Cc1noc(-c2ccc(O[C@H]3CCC[C@H](C(=O)O)C3)cc2)c1COC(=O)N(C)C1CCCC1 (racemic) [Compound 4, (+/−)-(1S,3S)-3-(4-(4-(((cyclopentyl(methyl)carbamoyl)oxy)methyl)-3-methylisoxazol-5-yl)phenoxy)cyclohexane-1-carboxylic Acid]",2.79 h,0.218 h,2.19 h,–,> 200 µM,–
"CN(C(=O)OCc1c(-c2ccc(O[C@H]3CCC[C@H](C(=O)O)C3)cc2)cnn1C)C1CCCC1 (racemic) [Compound 11, (+/−)-(1S,3S)-3-(4-(5-(((cyclopentyl(methyl)carbamoyl)oxy)methyl)-1-methyl-1H-pyrazol-4-yl)phenoxy)cyclohexane-1-carboxylate]",> 0.5 h,> 0.5 h,> 0.5 h,–,> 200 µM,A (A: 50-70%)
Cc1nnc(-c2ccc(O[C@H]3CCC[C@H](C(=O)O)C3)c(C)n2)cc1COC(=O)N(C)C1CCCC1 (racemic) [Compound 49],–,–,–,< 0.05 µM,> 200 µM,B (B: 30-50%)
Cc1nc(-c2ncnc(C)c2COC(=O)N(C)C2CCCC2)ccc1O[C@H]1CCC[C@H](C(=O)O)C1 (racemic) [Compound 51],–,–,–,< 0.05 µM,> 200 µM,A (A: 50-70%)
Cc1nc(-c2cnnc(C)c2COC(=O)N(C)C2CCCC2)ccc1O[C@H]1CCC[C@H](C(=O)O)C1 (racemic) [Compound 52],–,–,–,< 0.05 µM,> 200 µM,B (B: 30-50%)
Cc1nc(-c2[nH]nc(C)c2COC(=O)N(C)C2CCCC2)ccc1O[C@H]1CCC[C@H](C(=O)O)C1 (racemic) [Compound 53],–,–,–,< 0.05 µM,> 200 µM,A (A: 50-70%)
Cc1nc(-n2cnc(C)c2COC(=O)N(C)C2CCCC2)ccc1O[C@H]1CCC[C@H](C(=O)O)C1 (racemic) [Compound 54],–,–,–,< 0.05 µM,> 200 µM,B (B: 30-50%)
Cc1nc(-c2ccn(C)c2COC(=O)N(C)C2CCCC2)ccc1O[C@H]1CCC[C@H](C(=O)O)C1 (racemic) [Compound 55],–,–,–,< 0.05 µM,> 200 µM,A (A: 50-70%)
"Cc1nc(-c2c(Cl)nn(C)c2COC(=O)N(C)C2CCCC2)ccc1O[C@H]1CCC[C@H](C(=O)O)C1 (racemic) [Compound 56, (+/−)-(1S,3S)-3-((6-(3-chloro-5-(((cyclopentyl(methyl)carbamoyl)oxy)methyl)-1-methyl-1H-pyrazol-4-yl)-2-methylpyridin-3-yl)oxy)cyclohexane-1-carboxylic Acid]",–,–,–,< 0.05 µM,> 200 µM,A (A: 50-70%)
Cc1nc(-c2c(C#N)nn(C)c2COC(=O)N(C)C2CCCC2)ccc1O[C@@H]1CCC[C@@H](C(=O)O)C1 (racemic) [Compound 58],–,–,–,< 0.05 µM,> 200 µM,A (A: 50-70%)
"COc1nc(-c2cnn(C)c2COC(=O)N(C)C2CCCC2)ccc1O[C@H]1CCC[C@H](C(=O)O)C1 (racemic) [Compound 59, (+/−)-(1S,3S)-3-((6-(5-(((cyclopentyl(methyl)carbamoyl)oxy)methyl)-1-methyl-1H-pyrazol-4-yl)-2-methoxypyridin-3-yl)oxy)cyclohexane-1-carboxylic Acid]",–,–,–,< 0.05 µM,> 200 µM,B (B: 30-50%)
"CN(C(=O)OCc1c(-c2ccc(O[C@H]3CCC[C@H](C(=O)O)C3)c(Cl)n2)cnn1C)C1CCCC1 (racemic) [Compound 61, (+/−)-(1S,3S)-3-((2-chloro-6-(5-(((cyclopentyl(methyl)carbamoyl)oxy)methyl)-1-methyl-1H-pyrazol-4-yl)pyridin-3-yl)oxy)cyclohexane-1-carboxylic Acid]",–,–,–,< 0.05 µM,> 200 µM,A (A: 50-70%)
Cc1nc(-c2cnn(C)c2COC(=O)N(C)C2CCCC2)cnc1O[C@H]1CCC[C@H](C(=O)O)C1 (racemic) [Compound 66],11.7 h,1.56 h,8.21 h,< 0.05 µM,–,B (B: 30-50%)
"CN(C(=O)OCc1c(-c2ncc(O[C@H]3CCC[C@H](C(=O)O)C3)cn2)cnn1C)C1CCCC1 (racemic) [Compound 100, (+/−)-(1S,3S)-3-((2-(5-(((cyclopentyl(methyl)carbamoyl)oxy)methyl)-1-methyl-1H-pyrazol-4-yl)pyrimidin-5-yl)oxy)cyclohexane-1-carboxylic Acid]",–,–,–,0.3 to 10 µM,> 200 µM,B (B: 30-50%)
Cc1noc(-c2ccc(C3(C(=O)O)CC3)cc2)c1NC(=O)O[C@H](C)c1ccccc1 [Compound 3],–,–,–,0.3 to 10 µM,> 200 µM,C (C: 0-30%)
Cc1noc(-c2ccc(O[C@H]3CCC[C@H](C(=O)O)C3)c(C(F)(F)F)n2)c1COC(=O)N(C)C1CCCC1 [Compound 37],–,–,–,< 0.05 µM,> 200 µM,A (A: 50-70%)
Cc1nc(-c2c(F)nn(C)c2COC(=O)N(C)C2CCCC2)ccc1O[C@H]1CCC[C@H](C(=O)O)C1 [Compound 57],–,–,–,< 0.05 µM,> 200 µM,A (A: 50-70%)

# Second part, led by results:
half-life [1],half-life [3],half-life [4],IC50 [6],Structure (SMILES),CC50 at 48 h [2],Cell migration inhibition rate (%) [5]
–,1.81 h,10.3 h,< 0.05 µM,"Cc1nc(-c2cnn(C)c2COC(=O)N(C)C2CCCC2)ccc1O[C@H]1CCC[C@H](C(=O)O)C1 (racemic) [Compound 16, (+/−)-(1S,3S)-3-((6-(5-(((cyclopentyl(methyl)carbamoyl)oxy)methyl)-1-methyl-1H-pyrazol-4-yl)-2-methylpyridin-3-yl)oxy)cyclohexane-1-carboxylic Acid]",> 200 µM,A (A: 50-70%)
–,–,–,< 0.05 µM,Cc1nc(-c2snc(C)c2COC(=O)N(C)C2CCCC2)ccc1O[C@H]1CCC[C@H](C(=O)O)C1 (racemic) [Compound 40],> 200 µM,A (A: 50-70%)
–,–,–,< 0.05 µM,Cc1nc(-c2c[nH]c(C)c2COC(=O)N(C)C2CCCC2)ccc1O[C@H]1CCC[C@H](C(=O)O)C1 (racemic) [Compound 41],> 200 µM,B (B: 30-50%)
–,–,–,< 0.05 µM,Cc1nc(-c2coc(C)c2COC(=O)N(C)C2CCCC2)ccc1O[C@H]1CCC[C@H](C(=O)O)C1 (racemic) [Compound 42],> 200 µM,A (A: 50-70%)
–,–,–,< 0.05 µM,Cc1nc(-c2csc(C)c2COC(=O)N(C)C2CCCC2)ccc1O[C@H]1CCC[C@H](C(=O)O)C1 (racemic) [Compound 43],> 200 µM,A (A: 50-70%)
–,–,–,< 0.05 µM,Cc1c[nH]c(-c2ccc(O[C@H]3CCC[C@H](C(=O)O)C3)c(C)n2)c1COC(=O)N(C)C1CCCC1 (racemic) [Compound 44],> 200 µM,B (B: 30-50%)
–,–,–,< 0.05 µM,Cc1coc(-c2ccc(O[C@H]3CCC[C@H](C(=O)O)C3)c(C)n2)c1COC(=O)N(C)C1CCCC1 (racemic) [Compound 45],> 200 µM,A (A: 50-70%)
–,–,–,< 0.05 µM,Cc1csc(-c2ccc(O[C@H]3CCC[C@H](C(=O)O)C3)c(C)n2)c1COC(=O)N(C)C1CCCC1 (racemic) [Compound 46],> 200 µM,A (A: 50-70%)
–,–,–,< 0.05 µM,Cc1nc(-c2cnnc(COC(=O)N(C)C3CCCC3)c2)ccc1O[C@H]1CCC[C@H](C(=O)O)C1 (racemic) [Compound 47],> 200 µM,B (B: 30-50%)
